In article PMC8954540, “A New Class of PSMA-617-Based Hybrid Molecules for Preoperative Imaging and Intraoperative Fluorescence Navigation of Prostate Cancer” (Pharmaceuticals, 2022):

Experiments:
PC-3 tumor xenografts = assay: Small-animal PET/MRI proof-of-concept, PSMA-negative xenograft; assay type: in vivo, mice; settings: 0.5 nmol, PSMA-negative PC-3 xenograft, n = 1
Method: (§1) For the proof-of-concept imaging study, 0.5 nmol of the ^68Ga-labeled compound in 0.9% NaCl (pH 7) were injected into the tail vein under anesthesia (2% isoflurane, n = 1). PET/MRI was performed with a 3T PET/MRI scanner (Bruker, Ettlingen, Germany). For MR imaging, a nontriggered localizer followed by a T1-weighted 3D scan was applied. For PET imaging, a dynamic scan for 60 min and a static scan (20 min) at 2 h p.i. was recorded. Image reconstruction was done with ParaVision software (dynamic scan: MLEM 0.5 mm algorithm, 12 iterations; static scan: OSEM 0.25 mm algorithm, 1 iteration), and data analysis was conducted in PMOD (version 3.7) with data converted to SUV images. After PET/MRI, the mice were sacrificed, and optical imaging of the subcutaneous tumor and organs of interest was performed with the Odyssey CLx system (LI-COR Biosciences, excitation wavelength 800 nm).

[1] = system: LNCaP xenograft mouse model; assay: Small-animal PET/MRI proof-of-concept, PSMA-positive xenograft; assay type: in vivo, mice
Method: (§2) Biodistribution and proof-of-concept imaging studies were performed in an experimental tumor xenograft model. A total of 5 × 10^6 cells of LNCaP (in 50% Matrigel; Becton Dickinson, Franklin Lakes, NJ, USA) were subcutaneously inoculated into the flank of 7- to 8-week-old male BALB/c nu/nu mice (Charles River, Wilmington, MA, USA/Janvier Labs, Le Genest-Saint-Isle, France).
as §1

[2] = system: LNCaP-tumor bearing BALB/c nu/nu mice; assay: Biodistribution (organ distribution) in tumor xenograft model; assay type: in vivo; settings: 0.06 nmol; for Organ distribution Blood / Organ distribution Brain / Organ distribution Heart / Organ distribution Intestine / Organ distribution Kidney / Organ distribution Liver / Organ distribution Lung / Organ distribution Muscle / Organ distribution Spleen / Organ distribution Tumor: n=3
Method: as §2
For biodistribution studies, 60 pmol of ^68Ga-labeled PSMA-927 were injected into the tail vein (1–3 MBq, n = 3). The animals were sacrificed at 1 and at 2 h p.i., and organs of interest were dissected, blotted dry, and weighed. Finally, the radioactivity was measured using a gamma counter and calculated as % ID/g.

LNCaP cells [3] = assay: Specific cell surface binding and internalization of 68Ga-labeled compounds; assay type: cell-based
Method: (§3) LNCaP cells (CRL-1740; ATCC; PSMA-positive) and PC-3 cells (CRL-1435; ATCC; PSMA-negative) were cultured in RPMI medium (Thermo Fisher Scientific, Waltham, MA, USA) supplemented with 10% fetal calf serum and 2 mmol/L L-glutamine (all from (Thermo Fisher Scientific, Waltham, MA, USA) ) at 37 °C in humidified air with 5% CO2. Cells were harvested using trypsin-ethylenediaminetetraacetic acid (trypsin-EDTA; 0.25% trypsin, 0.02% EDTA, Invitrogen, Waltham, MA, USA). Cell line authentication was regularly performed. Binding affinities and internalization profiles of the ^68Ga-labeled compounds were determined in competitive cell binding assays and internalization experiments as described previously.

PSMA = biological target: T1, PSMA (Homo sapiens, UniProt Q04609); assay: Competitive cell binding assay (radioligand 68Ga-PSMA-10); settings: free ligands, mean ± SD, n = 3
T1 construct: LNCaP cells (CRL-1740; ATCC; PSMA-positive); host or cells: LNCaP cells
Method: as §3

PC-3 cells = assay: Confocal fluorescence imaging, PSMA-negative cells; assay type: cell-based; settings: PSMA-negative PC-3 cells, 50 nmol/L
Method: (§4) For confocal microscopy sample preparation, 10^5 cells/well were seeded in poly-L-lysine (Sigma-Aldrich, Darmstadt, Germany) coated 4-well chambered coverslips (Nunc Lab-Tek II chambered coverglasses, Thermo Fisher Scientific, Waltham, MA, USA, live cell imaging) or on poly-L-lysine (Sigma-Aldrich, Darmstadt, Germany) coated #1 coverslips (15 mm diameter, fixed cell imaging) and kept for 48 h at 37 °C in humidified air with 5% CO2. Subsequently, cells were incubated with 50 nmol/L PSMA-927in RPMI for 5/15/30/45/60 min at 37 °C in humidified air with 5% CO2. […]
(§5) All confocal data were acquired with a custom-built STED system similar to the one published by Gorlitz et al.. […] Laser powers were measured in front of the microscope body. […]
(§6) The integrated fluorescence intensity was extracted with a custom-written ImageJ routine. […] Multiplying this mask with the corresponding raw image generates an output image with which the integrated fluorescence intensity can be evaluated exclusively in the signal-carrying parts of the raw image without summing up background.

LNCaP cells [4] = assay: Confocal fluorescence imaging, PSMA-positive cells; assay type: cell-based; settings: 50 nmol/L, 60 min of internalization
Method: as §4, §5, §6

LNCaP cells [5] = assay: Cytotoxicity study by holographic time-lapse imaging; assay type: cell-based; settings: 100 nmol/L, constant exposure for 48 h
Method: Potential cytotoxicity of PSMA-927 was assessed by analyzing the frequency of LNCaP cell division and the length of the LNCaP cell cycle via holographic time-lapse imaging. Cells were seeded in lumox® 24-well plates (Sarstedt, Nümbrecht, Germany) 48 h prior to the experiment and kept at 37 °C and 5% CO2. Imaging was performed with a HoloMonitor® M4 cytometer (PHI AB, Lund, Schweden) for a total period of 48 h at 37 °C and 5% CO2 with 15 min between image captures. Cell proliferation was followed in absence and in presence of 100 nmol/L PSMA-927. Data analysis was performed with the AppSuite software including cell segmentation, tracking of cells, identification of dividing cells, confluency measurement, and cell counting.

[6] = Spectral properties (absorption and emission); assay type: physicochemical; settings: 10 μM in PBS (pH 7.4)
Method: Absorbance was measured with a Varian Cary 500 UV-VIS NIR Spectrophotometer (Agilent, Santa Clara, CA, USA) equipped with the software Cary 500 (EPROM Version 8.01, Agilent, Santa Clara, CA, USA) in the 200–1200 nm interval. Fluorescence emission was measured with a Varian Cary Eclipse Fluorescence-Spectrophotometer (Agilent, Santa Clara, CA, USA) equipped with the software Cary Eclipse (Version 1.1, Agilent, Santa Clara, CA, USA) with excitation at 710 nm in the 720–900 nm interval. PSMA-927 was diluted to 10 μM in PBS (pH 7.4) and measured in standard 1 cm quartz cuvettes.

[7] = Lipophilicity, logD at pH 7.4 in n-octanol/PBS; assay type: physicochemical; settings: 68Ga-labeled ligand
Method: The synthesis was performed according to previously published protocols. Details on synthesis and analytical data of the compounds are provided in the Supplementary Materials (Compound Synthesis and Analytical Characterization). […] Using 30% NaOH (Sigma-Aldrich, Darmstadt, Germany) and 10% NaOH (Sigma-Aldrich, Darmstadt, Germany), the pH was adjusted to 3.8. The reaction mixture was incubated at 98 °C for 5–10 min. The radiochemical yield was analyzed by reversed-phase high-performance liquid chromatography (RP-HPLC) or reversed-phase thin-layer chromatography (RP-TLC, 60 RP-18 F254S, Sigma-Aldrich, Darmstadt, Germany) with 0.5 M ammonium acetate/methanol (1:1) as the mobile phase. The lipophilicity of the ^68Ga-labeled compounds was determined using the 2-phase system n-octanol and PBS.

[8] = 68Ga-labeled compounds, blockage with 500 µmol/L 2-PMPA, mean ± SD, n = 3

T1 sequence (Q04609 whole entry): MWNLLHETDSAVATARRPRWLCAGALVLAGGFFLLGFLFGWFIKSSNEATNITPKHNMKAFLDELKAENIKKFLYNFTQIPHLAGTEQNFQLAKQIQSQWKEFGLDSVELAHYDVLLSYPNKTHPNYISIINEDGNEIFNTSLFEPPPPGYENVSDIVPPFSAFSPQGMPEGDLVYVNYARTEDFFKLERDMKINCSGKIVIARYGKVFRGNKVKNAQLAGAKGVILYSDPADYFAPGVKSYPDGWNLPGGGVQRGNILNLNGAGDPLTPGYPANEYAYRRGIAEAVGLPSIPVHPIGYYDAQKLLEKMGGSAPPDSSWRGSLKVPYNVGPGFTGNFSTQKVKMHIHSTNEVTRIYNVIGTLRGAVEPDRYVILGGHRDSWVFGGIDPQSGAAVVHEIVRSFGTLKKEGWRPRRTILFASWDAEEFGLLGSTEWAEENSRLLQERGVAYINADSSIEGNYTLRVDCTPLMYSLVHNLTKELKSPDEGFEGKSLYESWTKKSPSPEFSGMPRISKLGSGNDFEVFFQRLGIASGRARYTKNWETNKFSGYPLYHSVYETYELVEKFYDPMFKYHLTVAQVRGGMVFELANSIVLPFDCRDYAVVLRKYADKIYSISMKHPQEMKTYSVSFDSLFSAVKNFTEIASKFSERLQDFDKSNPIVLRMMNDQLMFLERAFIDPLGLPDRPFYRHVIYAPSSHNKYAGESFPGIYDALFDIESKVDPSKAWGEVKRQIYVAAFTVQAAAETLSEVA

## CC1(C)C(=CC=C2CCCC(C=CC3=[N+](CCCCCC(=O)NCCCCC(NC(=O)CN4CCN(CC(=O)[O-])CCN(CC(=O)[O-])CCN(CC(=O)[O-])CC4)C(=O)NCC4CCC(C(=O)NC(Cc5ccc6ccccc6c5)C(=O)NCCCCC(NC(=O)NC(CCC(=O)O)C(=O)O)C(=O)O)CC4)c4ccc(S(=O)(=O)[O-])cc4C3(C)C)=C2Oc2ccc(S(=O)(=O)O)cc2)N(CCCCS(=O)(=O)O)c2ccc(S(=O)(=O)O)cc21.[68Ga+3] (stereo not drawn) [[^68Ga]Ga-PSMA-927, 68Ga-Glu-urea-Lys-2-Nal-Chx-Lys(IRDye800CW)-DOTA]
PC-3 tumor xenografts
  tumor uptake in PET/MRI: lack of measurable uptake
[1]; 0.5 nmol, PSMA-positive LNCaP xenograft, n = 1
  tumor uptake in PET/MRI: strong and specific tumor uptake
[1]; time activity curves, PET/MRI
  pharmacokinetic profile (clearance): rapid clearance from non-malignant tissue (heart, liver, muscle) via the renal pathway
[2]; 1 h p.i.
  Tumor-to-Organ ratio Blood: 3.69 ± 0.60
  Tumor-to-Organ ratio Brain: 57.84 ± 9.25
  Tumor-to-Organ ratio Heart: 8.57 ± 2.07
  Tumor-to-Organ ratio Intestine: 10.37 ± 2.47
  Tumor-to-Organ ratio Kidney: 0.06 ± 0.01
  Tumor-to-Organ ratio Liver: 4.51 ± 0.84
  Tumor-to-Organ ratio Lung: 2.84 ± 0.37
  Tumor-to-Organ ratio Muscle: 12.23 ± 1.39
  Tumor-to-Organ ratio Spleen: 1.76 ± 0.71
  Organ distribution Blood: 1.14 ± 0.14 %ID/g
  Organ distribution Brain: 0.07 ± 0.01 %ID/g
  Organ distribution Heart: 0.51 ± 0.10 %ID/g
  Organ distribution Intestine: 0.43 ± 0.12 %ID/g
  Organ distribution Kidney: 65.64 ± 6.60 %ID/g
  Organ distribution Liver: 0.95 ± 0.15 %ID/g
  Organ distribution Lung: 1.47 ± 0.14 %ID/g
  Organ distribution Muscle: 0.34 ± 0.03 %ID/g
  Organ distribution Spleen: 2.82 ± 1.19 %ID/g
  Organ distribution Tumor: 4.13 ± 0.15 %ID/g
[2]; 2 h p.i.
  Tumor-to-Organ ratio Blood: 7.58 ± 1.65
  Tumor-to-Organ ratio Brain: 29.37 ± 13.17
  Tumor-to-Organ ratio Heart: 14.79 ± 4.40
  Tumor-to-Organ ratio Intestine: 11.92 ± 5.17
  Tumor-to-Organ ratio Kidney: 0.13 ± 0.06
  Tumor-to-Organ ratio Liver: 7.80 ± 3.09
  Tumor-to-Organ ratio Lung: 6.11 ± 2.36
  Tumor-to-Organ ratio Muscle: 11.55 ± 5.94
  Tumor-to-Organ ratio Spleen: 3.60 ± 1.86
  Organ distribution Blood: 0.82 ± 0.23 %ID/g
  Organ distribution Brain: 0.24 ± 0.11 %ID/g
  Organ distribution Heart: 0.43 ± 0.14 %ID/g
  Organ distribution Intestine: 0.59 ± 0.26 %ID/g
  Organ distribution Kidney: 57.47 ± 23.83 %ID/g
  Organ distribution Liver: 0.87 ± 0.34 %ID/g
  Organ distribution Lung: 1.11 ± 0.42 %ID/g
  Organ distribution Muscle: 0.66 ± 0.30 %ID/g
  Organ distribution Spleen: 2.08 ± 0.90 %ID/g
  Organ distribution Tumor: 5.85 ± 0.91 %ID/g
LNCaP cells [3]
  specific cell surface binding: 25.51 ± 9.73 %ID/10^5 LNCaP cells
  specific internalization rate: 27.64 ± 12.80 %ID/10^5 LNCaP cells

## CC1(C)C(=CC=C2CCCC(C=CC3=[N+](CCCCCC(=O)NCCCCC(NC(=O)CN4CCN(CC(=O)O)CCN(CC(=O)O)CCN(CC(=O)O)CC4)C(=O)NCC4CCC(C(=O)NC(Cc5ccc6ccccc6c5)C(=O)NCCCCC(NC(=O)NC(CCC(=O)O)C(=O)O)C(=O)O)CC4)c4ccc(S(=O)(=O)O)cc4C3(C)C)=C2Oc2ccc(S(=O)(=O)O)cc2)N(CCCCS(=O)(=O)O)c2ccc(S(=O)(=O)O)cc21 (stereo not drawn) [PSMA-927, Glu-urea-Lys-2-Nal-Chx-Lys(IRDye800CW)-DOTA]
PSMA; Ki=IC50/(1+cradioligand/Kd)
  Ki: 13.2 ± 5.25 nM
PSMA; radioligand 68Ga-PSMA-10, 0.75 nmol/L
  IC50: 15.9 ± 5.46 nM
PC-3 cells
  fluorescence signal increase: no significant fluorescence signal increase
LNCaP cells [4]; PFA-fixed cells
  integrated fluorescence intensity fixed: 3021 ± 863 counts
LNCaP cells [4]; live cells
  integrated fluorescence intensity live: 11,618 ± 5412 counts
LNCaP cells [5]
  cytotoxicity (cell count, confluency, frequency of cell division, cell cycle length): did not reveal any evidence of cytotoxicity
[6]
  absorption maximum: 778 nm
[6]; excitation at 710 nm
  emission maximum: 796 nm
[7]
  Lipophilicity logDpH 7.4 n-octanol/PBS: -2.96 ± 0.06
LNCaP cells [3]; [8]
  Specifically Cell Surface Bound: 25.51 ± 9.73 %AR/10^5 Cells
  Specifically Internalized: 27.64 ± 12.80 %AR/10^5 Cells
